Source: US12590093B2, “Indolo[2′,3′:3,4]pyrido[2,1-b]quinazoline compound and use thereof” (INSTITUTE OF MEDICINAL BIOTECHNOLOGY CHINESE ACADEMY OF …, priority 2019, dated 2026)
Entries after “also recorded” stand apart in the source; their conditions may differ.

Columns and labels:
ApoE^−/− mice = test: Serum inflammatory factor levels in ApoE−/− mice (ELISA); format: in vivo; details: 5 mg/kg intragastrically, 12 weeks, HFD
Procedure: 6-week-old male C57/BL6 ApoE^−/− mice were fed on normal chaw diet for one week. The mice were randomly divided into three groups (control group, high-fat diet model group, and treatment group, 12 mice per group) according to the body weight. From 7-week-old, the high-fat diet model group and the treatment group were fed on a high fat diet (HFD) (0.15% cholesterol and 20% fat), and the control group was fed on normal chow diet. The treatment group (R3) mice were administered intragastrically with TR3 (5 mg/kg). The control group and the high-fat diet model group mice were intragastrically administered with sodium carboxymethylcellulose (CMC-Na) solution. After 12 weeks of administration, all mice were fasted overnight. The blood sample was taken from the retro-orbital plexus, collected in a EP tube, and then centrifuged for 15 min (2500 rpm). The centrifuged serum (upper layer) was transferred to new EP tubes (divided into two aliquots) and stored at −20° C. for further use. The mice were fixed, and the skin was cut open along the midline of the abdomen to the neck. The abdominal cavity was cut open to collect the fresh liver tissue. The Liver tissue was put into 3 freezing tubes, and then immediately put into liquid nitrogen for subsequent detection of liver lipid detection and extraction of RNA and protein. The thorax was cut open to expose the heart. The heart was perfused with 10 ml PBS, and then fixed by perfusion with 4% paraformaldehyde solution until the liver turned white. The fixed liver was taken out and placed in a six-well plate containing 4% paraformaldehyde solution for further fixation. The full-length aorta (from the ascending aorta to the common iliac arteries) was isolated and placed in a six-well plate containing 4% paraformaldehyde solution. The aorta was fixed in 4% paraformaldehyde solution overnight and then stored in 20% sucrose solution at 4° C.
The levels of IL-1β, IL-18, IL-6, TNF-α and IL-10 in the serum of ApoE^−/− mice were measured by using the corresponding ELISA kits (Nanjing Sen Bei Jia Biotechnology Co., Ltd., Nanjing, China). Standard dilution and addition: the standard was diluted by gradient, and 10 wells on the coated ELISA plate were set for standard addition. Sample addition: blank wells and sample wells were set separately. The sample wells of the coated ELISA plates were first added with 40 μL sample diluent, and then added 10 μL sample (the final dilution of the sample is 5-fold). […] Assay detection: the absorbance at 450 nm of each well was read with the absorbance at 450 nm of the blank well as zero, and this process was performed within 15 min after the stop solution was added.

LXRα = target: T1, LXRα (Homo sapiens, UniProt Q13133); test: Nuclear receptor reporter gene transient transfection (pBIND-hLXRs-LBD) in HepG2 cells, LXRα; format: cell-based
T1 construct: expressed in transfected cells; host or cells: HepG2
T1 sequence (Q13133 209-447 limits assumed): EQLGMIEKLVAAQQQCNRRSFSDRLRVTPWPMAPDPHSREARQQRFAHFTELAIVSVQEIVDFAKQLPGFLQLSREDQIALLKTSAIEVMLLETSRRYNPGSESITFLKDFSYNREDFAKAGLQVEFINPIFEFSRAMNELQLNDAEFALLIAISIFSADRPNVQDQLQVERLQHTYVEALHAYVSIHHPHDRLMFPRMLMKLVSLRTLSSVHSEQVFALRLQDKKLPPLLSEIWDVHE
Procedure: HepG2 cells in logarithmic growth phase were digested, seeded into the white/clear 96-well plate at a density of 5×10^4 cells/well/100 μL until the cells grew to about 90% confluence and in good condition. 0.5 μL liposome (Lipofectamine® 2000) diluted with blank medium to 25 μL per well and incubated at room temperature for 5 min. The corresponding plasmids DNA (nuclear receptor plasmid:Gal4=1:10) were diluted in blank DMEM medium to 25 μL/well (mixing of two plasmids), then mixed evenly with the diluted liposome, and incubated for 20 min at 37° C. The DNA-liposome complex (50 μL per well) was added with the DMEM complete medium (100 μL per well) and mixed thoroughly to obtain a DNA-liposome complex cell culture. The cell medium was discarded, and replaced with the DNA-liposome complex cell culture (150 μL/well) (37° C., 5% CO2). After 6 h, the DNA-liposome complex cell culture medium was discarded, and 200 μL serum-free DMEM medium containing the compound at an appropriate concentration was added to each test well, and cultured for 18-24 h. The cell Luciferase activity was measured by the method as described in the Luciferase Assay System.

SR-BI = SR-BI up-regulation, luciferase reporter in SR-BI-LUC HepG2 cells; format: cell-based; details: Homo sapiens, 18 h, maximum up-regulation of luciferase activity versus DMSO, read-out: SR-BI max
Procedure: Experiments were conducted to detect whether the compounds of the disclosure can pharmacologically up-regulate the expression of ABCA1 and SR-BI. Firstly, ABCA1P-LUC HepG2 cells or SR-BI-LUC HepG2 cells in logarithmic growth phase were digested, diluted in cell culture medium, and counted. Cells were seeded into 96-well plates at a density of 5×10^5/ml (100 μL of the single-cell suspension per well). After cells fully adhered (about 6 h), the medium containing 10% FBS was removed, and the cells were gently washed with PBS. Serum free MEM-EBSS medium (200 μL per test well) and 2 μL of the compounds to be tested (at a final concentration of 10 μg/mL) were added to each test well, and meanwhile, DMSO at a corresponding concentration was added to the control well. After 18-24 h, the medium was removed. Cell Luciferase activity was measured by a method as described in the Luciferase Assay System. By optimizing the final concentration of DMSO, the treatment time of the compounds on the cells and the number of cells seeded into each well during the screening, the final screening conditions were determined as follows: each well is seeded with 5×10^4 cells, DMSO is added at a final concentration of 1%, and the sample is treated for 18 h.
The ratio of change of luciferase activity is calculated with the following formula: Ratio of change (%)=A/B×100;
wherein A is the luciferase activity (RLU) measured after the compound to be tested is added, and B is the luciferase activity (RLU) measured after the blank control (DMSO) is added. The luciferase activity of cells in each well was measured, and the dose-effect relationship between the concentration of the compound and the ratio of change of the luciferase activity was determined to calculate the EC50.

LXRα max (LXRα; HepG2 cells, reporter gene, 18-24 h): 1.36
SMILES: c1ccc2c(c1)CN1CCc3c([nH]c4ccccc34)C1=N2 [TR3, 5,7,8,13-tetrahydroindolo[2′,3′:3,4]pyrido[2,1-b]quinazoline]
level of IL-1β in mouse serum (ApoE^−/− mice): decreased the levels of IL-1β, IL-18 and IL-6 significantly
level of IL-6 in mouse serum (ApoE^−/− mice): decreased the levels of IL-1β, IL-18 and IL-6 significantly
level of IL-18 in mouse serum (ApoE^−/− mice): decreased the levels of IL-1β, IL-18 and IL-6 significantly
level of TNF-α in mouse serum (ApoE^−/− mice): decreased the levels of IL-1β, IL-18 and IL-6 significantly and the level of TNF-α slightly
LXRα agonist activity (LXRα; result in words): showed agonist activity; also recorded: simultaneously activated PPARα/γ/δ and LXRα/β to a certain extent
maximal fold induction (SR-BI): 2.07
